Laboratory results taken from patent publication US10632116B2, “Combinations of serotonin receptor agonists for treatment of movement disorders” (Contera Pharma A/S, priority 2010, dated 2020).

Legend:
[1] = tested on: unilaterally 6-OHDA-lesioned rats; assay: L-DOPA induced AIMs and drugs screening test (6-OHDA rat model); type: in vivo
Source text: Administration of L-DOPA to unilaterally 6-OHDA-lesioned rats induces abnormal involuntary movements (AIMs). These are axial, limb and oral movements that occur only on the body side that is ipsilateral to the lesion.
Animals: 90 experimentally-naïve, male, Sprague-Dawley rats at body weight of 200 to 250 g from Shanghai SLAC Co. Ltd. arrive at the laboratory at least 1 week prior to behavioural testing. Rats are housed in groups of n=2/cage. […] Animal housing and testing rooms are maintained under controlled environmental conditions and are within close proximity of each other. Animal housing rooms are on a 12-hour light-dark cycle with lights on at 6:00 AM and maintained at 70° F./21° C. (range: 68-72° F./20-22° C.) with a humidity range of 20-40%. Testing rooms are maintained at 68-72° F. with a humidity range of 20-40%.
DA-denervating lesions are performed by unilateral injection of 6-OHDA in the ascending nigrostriatal pathway. Rats were anesthetized with pentobarbital sodium 40 mg/kg (i.p.) and positioned in a stereotactic frame. 6-OHDA is injected into the right ascending DA bundle at the following coordinates (in mm) relative to bregma and dural surface: (1) toothbar position −2.3, A=−4.4, L=1.2, V=7.8, (7.5 ug 6-OHDA), (2) toothbar position+3.4, A=−4.0, L=0.8, V=8.0 mm (6 ug 6-OHDA). The neurotoxin injections are performed at a rate of 1 ul/min, and the injection cannula is left in place for an additional 2-3 min thereafter. Two weeks after surgery rats with nearly complete (>90%) lesions are selected by means of an amphetamine-induced rotation test. The animals are placed in plastic Perspex bowls (30 cm in diameter) and the rotational behavior (360° turns) is recorded by an automated rotometer for 90 min after the i.p. injection of 2.5 mg/kg d-amphetamine sulphate. […] Animals are then allocated into two well-matched sub-groups (according to the amphetamine rotation) and receive daily treatment as described below.
L-DOPA methyl ester (Sigma-Aldrich, Germany) is given at the dose of 6 mg/kg/day, combined with 15 mg/kg/day of benserazide HCl (Sigma-Aldrich, Germany). […]

[2] = tested on: Parkinson's disease; settings: doses 10-60 mg/day; cited from earlier work
[3] = tested on: Sprague-Dawley (SD) rats; assay: Rotarod test (Example V, sedation/motor performance); type: in vivo, rat; settings: FIG. 2; pentobarbital 15 mg/kg i.p., 30 min before test; positive control
Source text: (§1) The present study describes the evaluation of zolmitriptan and buspirone in the 6-OHDA rat model in a study using the rotarod test. Using this study, a treatment with combination of compounds according to the present invention can be evaluated for their sedative effects, and/or their effects on the motor performance compared to sedated rats and to rats which only had saline injections.
In brief, the animals (30 SD male rats (180-220 g, bred in house, originally from SLAC Laboratory Animal Co. Ltd) at 9-week of age) were trained twice a day for a 3-day period. […] Each training trial was ended if the animal fell off or grips the device and spun around for two consecutive revolutions. The time that rat stayed on the Rotarod was recorded. The staying duration recorded at last training trail was used as baseline. Rats were grouped according a randomly distribution of baseline.
For the test session on the fourth day, the rats were evaluated on the Rotarod with the same setting as above at 30 min after dosing. The rats were dosed with drugs as described below. Dosing and Rotarod measurement were conducted by two scientists separately. Pentobarbital (15 mg/kg. i.p.) was used a as a positive control.
(§2) Vehicle: Saline, i.p., 30 min before test, n=10
(§3) Positive control: Pentobarbital 15 mg/kg, i.p. 30 min before test, n=10 […]
The data were analyzed using One-Way ANOVA and the Tukey post-hoc test.

[4] = tested on: naïve rats; assay: Open field test (Example VI, locomotor activity); type: in vivo, rat; settings: FIG. 3; pentobarbital 15 mg/kg i.p., 30 min before test; positive control
Source text: as §1, with “model.” for “model in a study using the rotarod test.”
The open field test was used to determine the effects of drug on locomotor activity. Rats were put in open-field chambers (dimensions 40 cm×40 cm) 30 minutes after dosing. After a 15 minutes habituation, locomotion were recorded and analysed by Enthovision Video Tracking Software (Noldus Information Technology, Netherlands) for 60 minutes. All locomotor activities were done during dark phase and to eliminate olfactory cues, the arena was thoroughly cleaned with 70% v/v ethanol between each test.
as §2, §3
Statistical analysis: The total locomotor activity is expressed as total moved distance (cm) and average velocity (cm/s) during 60 minutes. The data were analysed using One-Way ANOVA and the Tukey post-hoc test. The locomotor activity in six time point is expressed as moved distance (cm) and average velocity (cm/s) every 10 minutes. The data were analysed using One-Way ANOVA and the Tukey post-hoc test in each time point.

[5] = tested on: L-DOPA induced dyskinesia; settings: cited from earlier work
[6] = tested on: 6-OHDA unilateral lesion model rats; assay: Forepaw adjusting steps (FAS), 6-OHDA induced akinesia; type: in vivo, rat; settings: first study; acute L-DOPA 3 mg/kg with 15 mg/kg benserazide s.c.
Procedure: Animals: 60 Sprague-Dawley male rats (290 g-340 g, bought from SLAC Laboratory Animal Co. Ltd at an age of 8-10 weeks). Rats were housed in groups of n=2/cage. […] Animal housing and testing rooms were maintained under controlled environmental conditions and were within close proximity of each other. Animal housing rooms were on a 12-hour light-dark cycle with lights on at 6:00 AM and maintained at 70° F./21° C. (range: 68-72° F./20-22° C.) with a humidity range of 20-40%. Testing rooms were maintained at 68-72° F. with a humidity range of 20-40%.
Dopamine (DA)-denervating lesions were performed by unilateral injection of 6-OHDA in the median forebrain bundle containing the ascending nigrostraital pathway. Rats were anesthetized with pentobarbital sodium 40 mg/kg (i.p.) and positioned in a stereotactic frame. 6-OHDA was injected at the following coordinates (in mm) relative to bregma and dural surface: Tooth bar: −3.3 mm, AP: −1.8 mm, ML: −2.0 mm, DV: −8.6 mm (18 μg/6 μl 6-OHDA). […]
After recovery from surgery, rats with nearly complete (>90%) lesions were selected by means of an apomorphin-induced rotation test. […] Quantification of the rotational response was accomplished in rats by counting the turns in 30 minutes. […]
Each baseline adjusting step test consisted of two subtests of the day and the mean of the two subtests were calculated as baseline. […]

[7] = tested on: Huntington's disease; settings: patient suffering from Huntington's disease; cited from earlier work

O=C1CC2(CCCC2)CC(=O)N1CCCCN1CCN(c2ncccn2)CC1 [buspirone, 8-[4-(4-pyrimidin-2-ylpiperazin-1-yl)butyl]-8-azaspiro[4.5]decane-7,9-dione]
L-DOPA induced AIM (Total AIMs) ([1]; Example IV, FIG. 1, buspirone alone 1 mg/kg/day i.p.): only partly reduced AIM
L-DOPA induced AIM (Total AIMs) ([1]; Example VII, FIG. 4, buspirone alone 0.5 mg/kg i.p.): only partly reduced AIM
effects on Parkinson's disease or dyskinesia [2]: did not have any effects

CCCC(C)C1(CC)C(=O)NC(=O)NC1=O (stereo not shown) [pentobarbital]
rotarod performance (time spent on the accelerating rod) [3]: significantly reduced time spend on the rotarod
open field test motor performance [4]: significantly reduced motor performance

Fc1ccc(-c2cncc(CNC[C@H]3CCc4ccccc4O3)c2)cc1 [sarizotan, 1-[(2R)-3,4-dihydro-2H-chromen-2-yl]-N-([5-(4-fluorophenyl)pyridin-3-yl]-methyl)methanamine]
LID ([5]; phase 2A study and open labeled study): reduced LID
effects compared to placebo ([5]; several large phase 2b studies): no significant effects

CN(C)CCc1c[nH]c2ccc(C[C@H]3COC(=O)N3)cc12 [zolmitriptan, (S)-4-([3-[2-(dimethylamino)ethyl]-1H-indol-5-yl]methyl)-1,3-oxazolidin-2-one]
L-DOPA induced AIM (Total AIMs) ([1]; Example IV, FIG. 1, zolmitriptan alone 10 mg/kg/day): did not reduce AIM

N[C@@H](Cc1ccc(O)c(O)c1)C(=O)O [L-DOPA, 3,4-dihydroxyphenylalanine]
6-OHDA induced akinesia (forelimb use) [6]: alleviated 6-OHDA induced akinesia

O=C1[C@H]2CCCC[C@H]2C(=O)N1CCCCN1CCN(c2nsc3ccccc23)CC1 [perospirone, (3 aR,7aS)-2-{4-[4-(1,2-benzisothiazol-3-yl)piperazin-1-yl]butyl}hexahydro-1H-isoindole-1,3(2H)-dione]
involuntary movement [7]: could reduce involuntary movement
